Results on 1 substance are retold here after patent US20240189435A1, “NOVEL PEPTIDE-OLIGONUCLEOTIDE CONJUGATE AND USE THEREOF” (KOREA INSTITUTE OF SCIENCE AND TECHNOLOGY, priority 2021, published 2024).

In data set [1] the test system is B16 cells. As to the kind of experiment: Cytotoxicity in B16 cells, cell counting Kit-8 (CCK-8). The data set is classed as cell-based. Conditions: 300 nM, 24 hours. The method, then:
(2) To determine the cytotoxicity of this substance, B16 cells were treated with 300 nM Pep-21 for 24 hours and the cytotoxicity was confirmed using cell counting Kit-8 (CCK-8).
In general terms: Tetrazolium dyes change colour on reduction, which living cells bring about.

Another data set concerns CD31. As to the kind of experiment: CD31 immunofluorescence of excised tumor tissue. In kind it is in vivo, mice. The settings on record: 21 days, compared to the control group. On the procedure:
(§1) 21 days after the animal test, the excised tumor tissue was analyzed by immunofluorescence.
In addition, immunofluorescence was performed using CD31, an angiogenesis marker.

Data set [2] deals with programmed cell death 4 (PDCD4). As to the kind of experiment: Western blot in B16 cells, PDCD4. The data set is classed as cell-based. Conditions: 300 nM, serum free media, 24 hours. On the procedure:
(§2) B16 cells were treated with 300 nM Pep-21 in serum free media for 24 hours, protein assay was performed and western blot was performed.
(§3) miRNA-21 related markers: programmed cell death 4 (PDCD4), matrix metalloproteinase-2 (MMP2), tissue inhibitor of metalloproteinase-3 (TIMP3)

Data set [3] relates to miRNA-21. As to the kind of experiment: Agarose gel electrophoresis of binding to miRNA-21. On the procedure: The binding affinity of miRNA-21 and Pep-21 was evaluated through agarose gel electrophoresis, compared to Free-21.
(§4) Synthetic Pep-21 (10 pmole) was reacted with miRNA-21 and negative control miRNA in 100 μL of PBS under the same conditions as above, in other words, at 37° C. for 1 hour and then whether or not pep-21 recognizes and binds to a specific sequence of miRNA-21 was identified by agarose gel electrophoresis.

In data set [4] the test system is miRNA-21. As to the kind of experiment: RT-PCR of miRNA-21 in M2ϕ. In kind it is cell-based. The settings on record: 300 nM, 18 hours. The method, then: (§5) Real-time polymerase chain reaction (RT-PCR) was performed to determine whether or not treatment with Pep-21 inhibited the expression of miRNA-21. M2ϕ was treated with 300 nM of Pep-21 for 18 hours, RNA was isolated and then real-time polymerase chain reaction (RT-PCR) was performed.

Data set [5] has as its system tissue inhibitor of metalloproteinase-3 (TIMP3). As to the kind of experiment: Western blot in B16 cells, TIMP3. The data set is classed as cell-based. Conditions: 300 nM, serum free media, 24 hours. On the procedure:
as §2, §3
A general note: In western blotting, separated proteins are transferred to a membrane and probed.

The next data set deals with iNOS (M1 marker). As to the kind of experiment: Immunofluorescence of tumor-associated macrophages, iNOS. Conditions: tumor-associated macrophages in excised tumor tissue, 21 days. The data set is classed as in vivo, mice. On the procedure: (§6) 21 days after the animal test, tumor-associated macrophages infiltrating the excised tumor tissue were analyzed by immunofluorescence (IF).

Data set [6] concerns B16 melanoma tumor tissue. As to the kind of experiment: TUNEL assay on excised tumor tissue. Conditions: 21 days, compared to the control group. In kind it is in vivo, mice. On the procedure:
as §1
TUNEL assay was performed on tumor tissue to determine the degree of apoptosis.

Another data set relates to Arginasel (M2 marker). As to the kind of experiment: Immunofluorescence of tumor-associated macrophages, Arginase1. The data set is classed as in vivo, mice. Conditions: tumor-associated macrophages in excised tumor tissue, 21 days. The method, then: as §6
For the next data set, the system named is B16 melanoma. As to the kind of experiment: Anti-tumor effect in tumor animal model. Conditions: 500 pmole intratumorally, 3 times at 3-day intervals, from day 12 after tumor inoculation. The data set is classed as in vivo, mice. From the text:
(§7) On day 12 after tumor inoculation (tumor size of about 70 mm^3), PBS, peptide, Free-21, and Pep-21 were intratumorally injected three times at intervals of three days.

A further data set deals with B16 melanoma cells. As to the kind of experiment: Cellular uptake in B16 melanoma cells, fluorescence microscopy. The settings on record: B16, 300 nM Cy5-labeled, 6 hours. In kind it is cell-based. On the procedure:
Melanoma cells (B16) were treated with 300 nM miRNA-21 labeled with Cy5 fluorescent dye for 6 hours and the degree of intracellular uptake was then observed with a fluorescence microscope.

Data set [7] deals with miRNA-21. As to the kind of experiment: RT-PCR of miRNA-21 in treated cancer tissue. The data set is classed as in vivo, mice. The settings on record: B16 tumor tissue, compared to the control group.
From the text: as §7

The subject of data set [8] is M2ϕ (M2 bone marrow-derived macrophages). As to the kind of experiment: Cellular uptake in M2 bone marrow-derived macrophages, fluorescence microscopy. The data set is classed as cell-based. The settings on record: 300 nM Cy5-labeled, 6 hours, compared to Free-21.
The test system of a further data set is IL-12. As to the kind of experiment: RT-PCR of inflammatory cytokines in M2ϕ, IL-12. In kind it is cell-based. The settings on record: 300 nM, 18 hours. On the procedure:
as §5
(§8) In addition, the expression level of inflammatory cytokines was determined through RT-PCR.

The subject of data set [9] is B16 cells. As to the kind of experiment: Scratch-wound healing assay in B16 cells. The settings on record: 300 nM in serum free media 48 hours, observed 72 hours after wounding, compared to the control group. In kind it is cell-based. On the procedure:
A scratch-wound healing assay was performed in order to analyze cell migration.
B16 cells were wounded using a 200 μL pipette tip, treated with 300 nM Pep-21 in serum free media for 48 hours, and then stabilized in fresh growth media for 24 hours.

Data set [10] deals with miRNA-21. As to the kind of experiment: RT-PCR of miRNA-21 in B16 cells. The data set is classed as cell-based. The settings on record: 300 nM, 18 hours. The method, then:
(1) Real-time polymerase chain reaction (RT-PCR) was performed to determine whether or not miRNA-21 expression was inhibited by treatment with Pep-21. B16 cells were treated with 300 nM of Pep-21 for 18 hours, RNA was isolated, cDNA was synthesized, and then real-time polymerase chain reaction (RT-PCR) was performed using miRNA-21 primer.

Data set [11] concerns matrix metalloproteinase-2 (MMP2). As to the kind of experiment: Western blot in B16 cells, MMP2. Conditions: 300 nM, serum free media, 24 hours. In kind it is cell-based. The method, then:
as §2, §3

The next data set has as its system negative control miRNA. As to the kind of experiment: Agarose gel electrophoresis of sequence specificity with negative control miRNA. In kind it is binding. Conditions: 10 pmole in 100 μL PBS, 37° C., 1 hour. On the procedure: as §4
Whether or not Pep-21 recognizes and binds to a specific sequence to miRNA-21 was determined using the negative control miRNA.

Another data set deals with TNF-α. As to the kind of experiment: RT-PCR of inflammatory cytokines in M2ϕ, TNF-α. The settings on record: 300 nM, 18 hours. In kind it is cell-based. On the procedure: as §5, §8

For the substance “Pep-21: Azide PDL1-binding peptide (N3-NYSKPTDRQYHF, d-form) click-conjugated to DBCO-anti-miR-21 DNA 5′-TCAACATCAGTCTGATAAGCTA-3′”, in the data set on B16 cells [1], the “cytotoxicity (CCK-8)” value is on record as “almost no cytotoxicity”. Further, the “CD31 (angiogenesis marker) expression” value in the data set with CD31 is listed as “decreased compared to the control group”. Further, the “PDCD4 expression (western blot)” value in data set [2] is “increased”. In the data set with miRNA-21 [3] (10 pmole annealed with miR-21 (0, 0.25, 0.5, 0.75 and 1) in 100 μL PBS, 37° C., 1 hour), the “binding affinity to miRNA-21 (gel electrophoresis)” value is on record as “binding affinity increased as the concentration increased”. Also, the “band shift upon reaction with miRNA-21” value in the data set with miRNA-21 [3] (10 pmole in 100 μL PBS, 37° C., 1 hour) is listed as “a band shift was observed”. The “sequence-specific recognition of miRNA-21 versus negative control miRNA” value in the data set on miRNA-21 [3] (conclusion from the band shift test) is recorded as “selectively binds to miRNA-21”. Moreover, the “expression of miRNA-21 (RT-PCR)” value is “inhibited expression of miRNA-21” in the data set with miRNA-21 [4] and “decreased the expression of miRNA-21” with miRNA-21 [10]. Moreover, in [5], the “Timp3 expression (western blot)” value was “increased”. For the same substance, the “iNOS (M1 marker) by IF” value in the data set on iNOS (M1 marker) is reported as “increased”. In addition, in data set [6], the “degree of apoptosis (TUNEL)” value is on record as “increased compared to the control group”. In the data set on Arginasel (M2 marker), the “Arginasel (M2 marker) by IF” value is “decreased”. In addition, the cancer growth entry in the data set with B16 melanoma is “inhibit cancer growth”. The “degree of intracellular uptake” value in the data set with B16 melanoma cells was “greatly advantageous in intracellular delivery”. The “cellular uptake when blocking with PD-L1 antibody” value in the data set on B16 melanoma cells (PD-L1 antibody blocking) is “cellular uptake decreased”. Besides, in the data set on miRNA-21 [7], the “amount of miRNA-21 expressed in cancer tissue (RT-PCR)” value was “reduced compared to the control group”. Besides, the “degree of uptake into cells” value in [8] is listed as “successfully delivered anti-21 to the cytoplasm”. Moreover, in the data set with IL-12, the “mRNA expression of IL-12” value is reported as “promoted mRNA expression”. Besides, the cancer cell migration result with B16 cells [9] is reported as “further inhibited”. Besides, in [11], the “MMP2 expression (western blot)” value is listed as “decreased”. The “band shift upon reaction with Neg-miRNA” value in the data set on negative control miRNA is “no band shift was observed”. For the same substance, in the data set on TNF-α, the “mRNA expression of TNF-α” value is reported as “promoted mRNA expression”.
